Laboratory results published in PubChem BioAssay AID2060893 (Molecular Pharmacology Branch, DTP, NCI, 2025).
pIC50: −log10 of the molar value.

System: K86415-001-R-J1-PDC complex spheroids, viability
Assay: Anticancer human tumor K86415-001-R-J1-PDC patient-derived lung adenocarcinoma cell line growth inhibition [RAS]
Conditions: for pIC50: curve of first compound; for viability, T/C: stronger effect = lower value
Method in brief: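 Multi-cell-type spheroids: tumor cells plus HUVEC endothelial cells and mesenchymal stem cells. RAS-pathway inhibitors were combined with targeted agents, each dosed in half-log steps down from clinical Cmax, or from 10 microM when Cmax was unknown.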

[1] = second compound 0.000949 µM, first compound 0.0316 µM
[2] = second compound 0.000949 µM, first compound 0.1 µM
[3] = second compound 0.003 µM, first compound 0.0316 µM
[4] = second compound 0.003 µM, first compound 0.1 µM
[5] = second compound 0.00949 µM, first compound 0.0316 µM
[6] = second compound 0.00949 µM, first compound 0.1 µM
[7] = second compound 0.03 µM, first compound 0.0316 µM
[8] = second compound 0.03 µM, first compound 0.1 µM
[9] = second compound 0.0949 µM, first compound 0.0316 µM
[10] = second compound 0.0949 µM, first compound 0.1 µM
[11] = second compound 0.3 µM, first compound 0.0316 µM
[12] = second compound 0.3 µM, first compound 0.1 µM
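Also: spheroids exposed to agents for seven days before readout.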

CCC(CC)c1cc(NC2CCC(N)C2)n2nccc2n1 (centres undefined) + CCn1c(-c2cc(N3CCN(C)CC3)cnc2C(C)OC)c2c3cc(ccc31)-c1csc(n1)CC(NC(=O)C1CC1C)C(=O)N1CCCC(N1)C(=O)OCC(C)(C)C2
pIC50 (second compound 0.000949 µM): 5.93 | pIC50 (second compound 0.003 µM): > 7.50 | pIC50 (second compound 0.00949 µM): > 7.50 | pIC50 (second compound 0.03 µM): > 7.50 | pIC50 (second compound 0.0949 µM): > 7.50 | pIC50 (second compound 0.3 µM): > 7.50 | viability, T/C [1]: 46.1% | viability, T/C [2]: 48.5% | viability, T/C (second compound 0.000949 µM, first compound 0.316 µM): 56.8% | viability, T/C (second compound 0.000949 µM, first compound 1 µM): 79% | viability, T/C (second compound 0.000949 µM, first compound 3.16 µM): 3.84% | viability, T/C (second compound 0.000949 µM, first compound 10 µM): 4.58% | viability, T/C [3]: 25.1% | viability, T/C [4]: 26.1% | viability, T/C (second compound 0.003 µM, first compound 0.316 µM): 27.8% | viability, T/C (second compound 0.003 µM, first compound 1 µM): 36.2% | viability, T/C (second compound 0.003 µM, first compound 3.16 µM): 4.27% | viability, T/C (second compound 0.003 µM, first compound 10 µM): 4.26% | viability, T/C [5]: 9.9% | viability, T/C [6]: 11.2% | viability, T/C (second compound 0.00949 µM, first compound 0.316 µM): 12.9% | viability, T/C (second compound 0.00949 µM, first compound 1 µM): 11.8% | viability, T/C (second compound 0.00949 µM, first compound 3.16 µM): 3.06% | viability, T/C (second compound 0.00949 µM, first compound 10 µM): 3.75% | viability, T/C [7]: 5.14% | viability, T/C [8]: 6.25% | viability, T/C (second compound 0.03 µM, first compound 0.316 µM): 7.94% | viability, T/C (second compound 0.03 µM, first compound 1 µM): 6.31% | viability, T/C (second compound 0.03 µM, first compound 3.16 µM): 3.03% | viability, T/C (second compound 0.03 µM, first compound 10 µM): 3.65% | viability, T/C [9]: 4.23% | viability, T/C [10]: 3.98% | viability, T/C (second compound 0.0949 µM, first compound 0.316 µM): 3.55% | viability, T/C (second compound 0.0949 µM, first compound 1 µM): 2.72% | viability, T/C (second compound 0.0949 µM, first compound 3.16 µM): 2.97% | viability, T/C (second compound 0.0949 µM, first compound 10 µM): 3.31% | viability, T/C [11]: 2.9% | viability, T/C [12]: 2.91% | viability, T/C (second compound 0.3 µM, first compound 0.316 µM): 3.27% | viability, T/C (second compound 0.3 µM, first compound 1 µM): 2.5% | viability, T/C (second compound 0.3 µM, first compound 3.16 µM): 4.29% | viability, T/C (second compound 0.3 µM, first compound 10 µM): 3.48%

CC(C)n1nc(-c2ccc3oc(N)nc3c2)c2c(N)ncnc21 + CCn1c(-c2cc(N3CCN(C)CC3)cnc2C(C)OC)c2c3cc(ccc31)-c1csc(n1)CC(NC(=O)C1CC1C)C(=O)N1CCCC(N1)C(=O)OCC(C)(C)C2
pIC50 (second compound 0.000949 µM): > 9.50 | pIC50 (second compound 0.003 µM): > 9.50 | pIC50 (second compound 0.00949 µM): > 9.50 | pIC50 (second compound 0.03 µM): > 9.50 | pIC50 (second compound 0.0949 µM): > 9.50 | pIC50 (second compound 0.3 µM): > 9.50 | viability, T/C (second compound 0.000949 µM, first compound 0.000316 µM): 46.4% | viability, T/C (second compound 0.000949 µM, first compound 0.001 µM): 46.7% | viability, T/C (second compound 0.000949 µM, first compound 0.00316 µM): 39.5% | viability, T/C (second compound 0.000949 µM, first compound 0.01 µM): 43.9% | viability, T/C [1]: 35.4% | viability, T/C [2]: 20.4% | viability, T/C (second compound 0.003 µM, first compound 0.000316 µM): 23.1% | viability, T/C (second compound 0.003 µM, first compound 0.001 µM): 17.4% | viability, T/C (second compound 0.003 µM, first compound 0.00316 µM): 18.4% | viability, T/C (second compound 0.003 µM, first compound 0.01 µM): 16.3% | viability, T/C [3]: 23.8% | viability, T/C [4]: 7.47% | viability, T/C (second compound 0.00949 µM, first compound 0.000316 µM): 11.5% | viability, T/C (second compound 0.00949 µM, first compound 0.001 µM): 9.33% | viability, T/C (second compound 0.00949 µM, first compound 0.00316 µM): 9.17% | viability, T/C (second compound 0.00949 µM, first compound 0.01 µM): 8.21% | viability, T/C [5]: 3.17% | viability, T/C [6]: 2.45% | viability, T/C (second compound 0.03 µM, first compound 0.000316 µM): 5.52% | viability, T/C (second compound 0.03 µM, first compound 0.001 µM): 4.5% | viability, T/C (second compound 0.03 µM, first compound 0.00316 µM): 3.7% | viability, T/C (second compound 0.03 µM, first compound 0.01 µM): 2.13% | viability, T/C [7]: 0.97% | viability, T/C [8]: 1.14% | viability, T/C (second compound 0.0949 µM, first compound 0.000316 µM): 3.75% | viability, T/C (second compound 0.0949 µM, first compound 0.001 µM): 3.4% | viability, T/C (second compound 0.0949 µM, first compound 0.00316 µM): 2.07% | viability, T/C (second compound 0.0949 µM, first compound 0.01 µM): 1.07% | viability, T/C [9]: 0.49% | viability, T/C [10]: 0.77% | viability, T/C (second compound 0.3 µM, first compound 0.000316 µM): 2.48% | viability, T/C (second compound 0.3 µM, first compound 0.001 µM): 2.57% | viability, T/C (second compound 0.3 µM, first compound 0.00316 µM): 2.13% | viability, T/C (second compound 0.3 µM, first compound 0.01 µM): 0.8% | viability, T/C [11]: 0.57% | viability, T/C [12]: 0.8%
